The source of these data is patent JP2021024822A, “安定化されたトリメブチンマレイン酸塩含有固形製剤” (Kyoto Pharmaceutical Industries Ltd, priority 2019, dated 2021).

A short description of the data set: Related substance A content of the trimebutine maleate drug substance used. The data set is classed as physicochemical. The conditions noted are these: drug substance used in this study.

For `CCC(COC(=O)c1cc(OC)c(OC)c(OC)c1)(c1ccccc1)N(C)C` (stereo not shown) [トリメブチンマレイン酸塩], the “content of related substance A in the trimebutine maleate drug substance” value was found to be 0.06%.
